In patent US12138256B2, “Treatment of cardiopulmonary disorders” (Bayer Aktiengesellschaft, priority 2021, dated 2024):
Several values for one entry are separate records, joined by “and”; a condition that tells them apart may be missing. Identical values can stand only once.

Test system: anesthetized PAH minipigs
Test: PAH minipig model: intratracheal application of dry powder formulations and different hydrates (PennCentury insufflator)
Format: in vivo, Göttingen minipig
Conditions: for BP (mean) / PAP(mean) / BP % changes vs. prevalues / PAP % changes vs. prevalues: 375 μg/kg i.t.; for BP (mean) / PAP(mean): absolute values; for BP % changes vs. prevalues / PAP % changes vs. prevalues: each animal
Source text: After characterization of the effects of comparative example 11 after nebulization of compound solutions, in a further step the effects of crystalline forms of comparative example 11, e.g. sesquihydrate, e.g. example 6e on PAP and BP after inhaled application of different dry powder lactose formulations (table C2.1.8) were studied in anesthetized PAH minipigs.
As reference pure Lactose vehicle was applied in the beginning of each experiment.

SMILES: O=C(O)c1ccc(CCN(CCc2ccccc2OCc2ccc(-c3ccc(C(F)(F)F)cc3)cc2Cl)[C@H]2CCCc3nc(C(=O)O)ccc32)cc1 [example 2, (5S)-{[2-(4-Carboxyphenyl)ethyl][2-(2-{[3-chloro-4′-(trifluoromethyl)biphenyl-4-yl]methoxy}phenyl)-ethyl]amino}-5,6,7,8-tetrahydroquinoline-2-carboxylic acid]
- efficacy with regard to PAP reduction as well as systemic BP reduction (1.5 mg/4 kg (=375 μg/kg) intratracheally, micronized): comparable efficacy
- BP (mean) (time 0): 109 mmHg and 127 mmHg and 136 mmHg
- PAP(mean) (time 0): 35.8 mmHg and 38.7 mmHg and 39.7 mmHg
- BP (mean) (time 10): 110 mmHg and 126 mmHg and 135 mmHg
- PAP(mean) (time 10): 35.8 mmHg and 38.7 mmHg and 37.1 mmHg
- BP (mean) (time 20): 117 mmHg and 128 mmHg and 139 mmHg
- PAP(mean) (time 20): 38.9 mmHg and 38.2 mmHg and 40.2 mmHg
- BP (mean) (time 30): 121 mmHg and 128 mmHg and 139 mmHg
- PAP(mean) (time 30): 39.8 mmHg and 38.6 mmHg and 40.0 mmHg
- BP (mean) (time 40): 123 mmHg and 127 mmHg and 137 mmHg
- PAP(mean) (time 40): 40.4 mmHg and 39.0 mmHg and 40.7 mmHg
- BP (mean) (time 50): 120 mmHg and 127 mmHg and 135 mmHg
- PAP(mean) (time 50): 39.7 mmHg and 39.2 mmHg and 40.2 mmHg
- BP % changes vs. prevalues (time 50): 99.1% and 100.1% and 100.0%
- PAP % changes vs. prevalues (time 50): 99.1% and 99.2% and 98.5%
- BP (mean) (time 60): 121 mmHg and 127 mmHg and 136 mmHg
- PAP(mean) (time 60): 39.9 mmHg and 39.2 mmHg and 40.8 mmHg
- BP % changes vs. prevalues (time 60): 99.9% and 100.1% and 100.7%
- PAP % changes vs. prevalues (time 60): 99.7% and 99.3% and 99.8%
- BP (mean) (time 70): 124 mmHg and 126 mmHg and 137 mmHg
- PAP(mean) (time 70): 39.1 mmHg and 36.0 mmHg and 37.2 mmHg
- BP % changes vs. prevalues (time 70): 102.4% and 99.3% and 101.4%
- PAP % changes vs. prevalues (time 70): 97.7% and 91.1% and 91.0%
- BP (mean) (time 80): 123 mmHg and 124 mmHg and 135 mmHg
- PAP(mean) (time 80): 39.1 mmHg and 36.1 mmHg and 35.9 mmHg
- BP % changes vs. prevalues (time 80): 101.6% and 97.7% and 100.0%
- PAP % changes vs. prevalues (time 80): 97.7% and 91.3% and 88.0%
- BP (mean) (time 90): 122 mmHg and 125 mmHg and 134 mmHg
- PAP(mean) (time 90): 37.9 mmHg and 35.2 mmHg and 34.5 mmHg
- BP % changes vs. prevalues (time 90): 100.7% and 98.5% and 99.2%
- PAP % changes vs. prevalues (time 90): 94.7% and 89.1% and 84.5%
- BP (mean) (time 100): 122 mmHg and 124 mmHg and 132 mmHg
- PAP(mean) (time 100): 36.8 mmHg and 33.2 mmHg and 32.7 mmHg
- BP % changes vs. prevalues (time 100): 100.7% and 97.7% (2×)
- PAP % changes vs. prevalues (time 100): 91.8% and 84.0% and 80.0%
- BP (mean) (time 110): 122 mmHg and 125 mmHg and 133 mmHg
- PAP(mean) (time 110): 35.5 mmHg and 31.9 mmHg and 31.2 mmHg
- BP % changes vs. prevalues (time 110): 100.7% and 98.5% (2×)
- PAP % changes vs. prevalues (time 110): 88.8% and 80.9% and 76.3%
- BP (mean) (time 120): 121 mmHg and 125 mmHg and 132 mmHg
- PAP(mean) (time 120): 34.8 mmHg and 30.2 mmHg and 29.8 mmHg
- BP % changes vs. prevalues (time 120): 99.9% and 98.5% and 97.7%
- PAP % changes vs. prevalues (time 120): 87.0% and 76.6% and 73.0%
- BP (mean) (time 130): 120 mmHg and 124 mmHg and 131 mmHg
- PAP(mean) (time 130): 34.2 mmHg and 29.7 mmHg and 29.3 mmHg
- BP % changes vs. prevalues (time 130): 99.1% and 97.7% and 97.0%
- PAP % changes vs. prevalues (time 130): 85.5% and 75.2% and 71.7%
- BP (mean) (time 140): 119 mmHg and 125 mmHg and 131 mmHg
- PAP(mean) (time 140): 34.3 mmHg and 29.3 mmHg and 28.6 mmHg
- BP % changes vs. prevalues (time 140): 98.3% and 98.5% and 97.0%
- PAP % changes vs. prevalues (time 140): 85.6% and 74.3% and 70.0%
- BP (mean) (time 150): 117 mmHg and 124 mmHg and 130 mmHg
- PAP(mean) (time 150): 33.7 mmHg and 28.4 mmHg
- BP % changes vs. prevalues (time 150): 96.6% and 97.7% and 96.3%
- PAP % changes vs. prevalues (time 150): 84.1% and 71.9% and 69.4%
- BP (mean) (time 160): 117 mmHg
- BP % changes vs. prevalues (time 160): 96.6% and 95.3% and 96.3%
- PAP % changes vs. prevalues (time 160): 84.1% and 70.4% and 68.1%
- BP % changes vs. prevalues (time 170): 95.8% and 94.5% and 95.5%
- PAP % changes vs. prevalues (time 170): 83.8% and 69.8% and 68.5%
- BP % changes vs. prevalues (time 180): 94.1% and 92.2% and 97.7%
- PAP % changes vs. prevalues (time 180): 83.8% and 68.7% and 68.9%
- BP % changes vs. prevalues (time 190): 92.5% and 91.4% and 98.5%
- PAP % changes vs. prevalues (time 190): 83.9% and 67.7% and 69.3%
- BP % changes vs. prevalues (time 200): 90.0% and 90.6% and 97.0%
- PAP % changes vs. prevalues (time 200): 83.7% and 67.9% and 68.5%
- BP % changes vs. prevalues (time 210): 90.8%
- PAP % changes vs. prevalues (time 210): 83.4% and 66.5% and 67.7%
- BP (mean) (time −10): 116 mmHg and 126 mmHg and 139 mmHg
- PAP(mean) (time −10): 37.9 mmHg and 37.8 mmHg and 39.4 mmHg
